# From US20250026721A1, “COMPOUNDS AND METHODS FOR MODULATING RAS-PI3K” (Vividion Therapeutics, Inc., priority 2023, published 2025)
# How the values were obtained:
# PIK3CA = molecular target: T1, PIK3CA (Homo sapiens, UniProt P42336); test: In vitro ELISA target engagement assay for PIK3CA in Jurkat cellular lysate (competition with PIK3CA Biotin Probe); assay type: binding; conditions: 1 hour at rt, then 500 nM PIK3CA Biotin Probe, read-out: Elisa Target Engagement Assay (TE50)
# T1 construct: endogenous in cells; host or cells: Jurkat cell lysate
# T1 sequence (P42336 whole entry): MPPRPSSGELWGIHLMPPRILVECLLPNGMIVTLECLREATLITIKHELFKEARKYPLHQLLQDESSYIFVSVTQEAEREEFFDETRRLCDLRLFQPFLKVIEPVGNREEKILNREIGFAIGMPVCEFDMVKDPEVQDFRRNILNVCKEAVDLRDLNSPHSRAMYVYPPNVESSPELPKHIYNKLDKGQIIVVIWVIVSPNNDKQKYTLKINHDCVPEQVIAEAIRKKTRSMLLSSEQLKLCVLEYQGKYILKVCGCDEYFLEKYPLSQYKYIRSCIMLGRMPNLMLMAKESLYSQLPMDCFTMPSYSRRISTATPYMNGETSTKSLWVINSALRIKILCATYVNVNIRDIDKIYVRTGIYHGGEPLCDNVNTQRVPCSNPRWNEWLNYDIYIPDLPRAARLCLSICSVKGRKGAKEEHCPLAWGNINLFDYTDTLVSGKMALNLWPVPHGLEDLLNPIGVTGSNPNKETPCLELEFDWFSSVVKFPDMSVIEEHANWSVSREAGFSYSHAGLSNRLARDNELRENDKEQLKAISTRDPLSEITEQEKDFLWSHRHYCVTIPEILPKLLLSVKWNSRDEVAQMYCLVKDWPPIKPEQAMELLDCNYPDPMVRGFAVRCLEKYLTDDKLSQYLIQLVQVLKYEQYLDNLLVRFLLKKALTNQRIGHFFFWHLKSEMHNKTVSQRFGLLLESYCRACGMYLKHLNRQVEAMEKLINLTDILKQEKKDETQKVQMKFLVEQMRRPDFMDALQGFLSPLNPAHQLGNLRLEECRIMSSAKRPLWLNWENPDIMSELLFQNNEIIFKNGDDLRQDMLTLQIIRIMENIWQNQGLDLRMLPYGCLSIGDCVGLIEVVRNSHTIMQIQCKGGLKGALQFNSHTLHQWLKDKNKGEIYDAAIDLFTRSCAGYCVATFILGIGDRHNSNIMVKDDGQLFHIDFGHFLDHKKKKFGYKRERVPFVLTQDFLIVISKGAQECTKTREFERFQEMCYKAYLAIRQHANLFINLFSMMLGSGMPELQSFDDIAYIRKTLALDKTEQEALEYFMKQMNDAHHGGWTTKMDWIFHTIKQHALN
# T1 sequence (P27986 whole entry partner): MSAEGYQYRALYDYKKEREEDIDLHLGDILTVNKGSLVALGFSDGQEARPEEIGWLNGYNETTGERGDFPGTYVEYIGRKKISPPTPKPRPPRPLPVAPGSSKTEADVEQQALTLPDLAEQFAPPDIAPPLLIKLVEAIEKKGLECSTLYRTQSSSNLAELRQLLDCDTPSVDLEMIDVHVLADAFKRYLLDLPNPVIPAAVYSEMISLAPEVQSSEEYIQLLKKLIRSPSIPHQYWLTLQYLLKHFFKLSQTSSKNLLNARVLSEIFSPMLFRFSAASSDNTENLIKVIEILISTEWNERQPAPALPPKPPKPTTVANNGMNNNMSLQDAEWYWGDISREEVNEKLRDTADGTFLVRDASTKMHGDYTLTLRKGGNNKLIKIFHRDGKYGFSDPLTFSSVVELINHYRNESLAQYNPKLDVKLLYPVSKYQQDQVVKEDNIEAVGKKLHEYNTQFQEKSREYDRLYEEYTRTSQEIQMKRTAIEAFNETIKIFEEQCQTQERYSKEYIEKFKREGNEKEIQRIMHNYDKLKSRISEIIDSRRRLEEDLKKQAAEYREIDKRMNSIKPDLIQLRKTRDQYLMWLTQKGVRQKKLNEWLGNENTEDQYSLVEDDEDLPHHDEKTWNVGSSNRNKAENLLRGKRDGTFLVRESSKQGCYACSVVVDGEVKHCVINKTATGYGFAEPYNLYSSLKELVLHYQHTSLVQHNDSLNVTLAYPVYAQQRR
# Summary of the method: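 Jurkat lysate from sonicated frozen cells was preincubated 1 h at rt with serially diluted compound up to 200 μM, then labelled 1 h at rt with PIK3CA biotin probe at 500 nM final. Probe-bound PIK3CA was captured on antibody-coated plates and detected with Neutravidin-HRP luminescence; TE50 derived from the dose response.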
# PIK3CA_C242 = molecular target: T2, PIK3CA_C242 (Homo sapiens, UniProt P42336); test: Proteomic TE50 (IA-DTB / TMT mass spectrometry) in Jurkat cell lysate; assay type: binding; conditions: 1 hour at rt, 7-point dose response
# T2 construct: endogenous in cells; host or cells: Jurkat cell lysate
# T2 sequence (P42336 whole entry): as the sequence (P42336 whole entry) above
# T2 sequence (P27986 whole entry partner): as the sequence (P27986 whole entry partner) above
# Summary of the method: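 Jurkat lysate (500 μg) treated with compound (7-point, 1:5 dilutions) for 1 h at rt, then labelled with 200 μM IA-DTB for 1 h. After digestion and streptavidin enrichment, the C242 peptide was quantified by targeted MS3 TMT. TE50 was derived from reporter-ion S/N dose-response curves.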
Compound,IC50 (PIK3CA) [nM],IC50 (PIK3CA_C242) [nM]
"COc1cc(-c2ccccc2Cl)c(S(=O)(=O)N2CCC(F)(C(=O)N[C@H](C)/C=C\S(C)(=O)=O)CC2)cc1Cl [Compound 29, (R,Z)-1-((2′,4-dichloro-5-methoxy-[1,1′-biphenyl]-2-yl)sulfonyl)-4-fluoro-N-(4-(methylsulfonyl)but-3-en-2-yl)piperidine-4-carboxamide]",570,390
"COc1ccc(S(=O)(=O)N2CCC(F)(C(=O)N[C@H](C)/C=C\S(C)(=O)=O)CC2)c(-c2ccccc2Cl)c1Cl [Compound 32, 1-((2′,6-dichloro-5-methoxy-[1,1′-biphenyl]-2-yl)sulfonyl)-4-fluoro-N-((R,Z)-4-(methylsulfonyl)but-3-en-2-yl)piperidine-4-carboxamide]",930,820
"C[C@H](/C=C\S(C)(=O)=O)NC(=O)C1(F)CCN(S(=O)(=O)c2ccc(OC(F)(F)F)cc2-c2ccccc2Cl)CC1 [Compound 34, (R,Z)-1-((2′-chloro-5-(trifluoromethoxy)-[1,1′-biphenyl]-2-yl)sulfonyl)-4-fluoro-N-(4-(methylsulfonyl)but-3-en-2-yl)piperidine-4-carboxamide]",550,700
"N#C/C=C/CNC(=O)C1(F)CCN(S(=O)(=O)c2ccc(Br)cc2-c2ccccc2Cl)CC1 [Compound 68, (E)-1-((5-bromo-2′-chloro-[1,1′-biphenyl]-2-yl)sulfonyl)-N-(3-cyanoallyl)-4-fluoropiperidine-4-carboxamide]",465,330
"CC[C@@H](/C=C\S(C)(=O)=O)NC(=O)C1(F)CCN(S(=O)(=O)c2ccc(Cl)cc2-c2cccc(OC)c2)CC1 [Compound 83, (S,Z)-1-((5-chloro-3′-methoxy-[1,1′-biphenyl]-2-yl)sulfonyl)-4-fluoro-N-(1-(methylsulfonyl)pent-1-en-3-yl)piperidine-4-carboxamide]",520,540
"CC[C@@H](/C=C\S(C)(=O)=O)NC(=O)C1(F)CCN(S(=O)(=O)c2ccc(Cl)cc2-c2ccccc2)CC1 [Compound 84, (S,Z)-1-((5-chloro-[1,1′-biphenyl]-2-yl)sulfonyl)-4-fluoro-N-(1-(methylsulfonyl)pent-1-en-3-yl)piperidine-4-carboxamide]",510,450
"C[C@@H](/C=C\S(C)(=O)=O)NC(=O)C1(F)CCN(S(=O)(=O)c2ccc(N(C)C)cc2-c2ccccc2)CC1 [Compound 88, (S,Z)-1-((5-(dimethylamino)-[1,1′-biphenyl]-2-yl)sulfonyl)-4-fluoro-N-(4-(methylsulfonyl)but-3-en-2-yl)piperidine-4-carboxamide]",79,86
"COc1cccc(-c2cc(N(C)C)ccc2S(=O)(=O)N2CCC(F)(C(=O)N[C@@H](C)/C=C\S(C)(=O)=O)CC2)c1Cl [Compound 90, (S,Z)-1-((2′-chloro-5-(dimethylamino)-3′-methoxy-[1,1′-biphenyl]-2-yl)sulfonyl)-4-fluoro-N-(4-(methylsulfonyl)but-3-en-2-yl)piperidine-4-carboxamide]",250,330
"C[C@H](/C=C\S(C)(=O)=O)NC(=O)C1(F)CCN(S(=O)(=O)c2ccc(N(C)C)cc2-c2ccccc2)CC1 [Compound 91, (R,Z)-1-((5-(dimethylamino)-[1,1′-biphenyl]-2-yl)sulfonyl)-4-fluoro-N-(4-(methylsulfonyl)but-3-en-2-yl)piperidine-4-carboxamide]",280,430
"C[C@H](/C=C\S(C)(=O)=O)NC(=O)C1(F)CCN(S(=O)(=O)c2ccc(N(C)C)cc2-c2ccccc2Cl)CC1 [Compound 92, (R,Z)-1-((2′-chloro-5-(dimethylamino)-[1,1′-biphenyl]-2-yl)sulfonyl)-4-fluoro-N-(4-(methylsulfonyl)but-3-en-2-yl)piperidine-4-carboxamide]",130,139
"CCOc1ccc(S(=O)(=O)N2CCC(F)(C(=O)N[C@H](C)/C=C\S(C)(=O)=O)CC2)c(-c2ccccc2C)c1 [Compound 102, (R,Z)-1-((5-ethoxy-2′-methyl-[1,1′-biphenyl]-2-yl)sulfonyl)-4-fluoro-N-(4-(methylsulfonyl)but-3-en-2-yl)piperidine-4-carboxamide]",730,610
"Cc1ccccc1-c1cc(OC2CC2)ccc1S(=O)(=O)N1CCC(F)(C(=O)N[C@H](C)/C=C\S(C)(=O)=O)CC1 [Compound 106, (R,Z)-1-((5-cyclopropoxy-2′-methyl-[1,1′-biphenyl]-2-yl)sulfonyl)-4-fluoro-N-(4-(methylsulfonyl)but-3-en-2-yl)piperidine-4-carboxamide]",820,310
"C=C(C)c1ccc(S(=O)(=O)N2CCC(F)(C(=O)N[C@H](C)/C=C\S(C)(=O)=O)CC2)c(-c2ccccc2Cl)c1 [Compound 109, (R,Z)-1-((2′-chloro-5-(prop-1-en-2-yl)-[1,1′-biphenyl]-2-yl)sulfonyl)-4-fluoro-N-(4-(methylsulfonyl)but-3-en-2-yl)piperidine-4-carboxamide]",360,280
"C=C(C)c1ccc(S(=O)(=O)N2CCC(F)(C(=O)N[C@H](C)/C=C\S(C)(=O)=O)CC2)c(-c2ccccc2C)c1 [Compound 110, (R,Z)-4-fluoro-1-((2′-methyl-5-(prop-1-en-2-yl)-[1,1′-biphenyl]-2-yl)sulfonyl)-N-(4-(methylsulfonyl)but-3-en-2-yl)piperidine-4-carboxamide]",830,363
"CCc1ccc(S(=O)(=O)N2CCC(F)(C(=O)N[C@H](C)/C=C\S(C)(=O)=O)CC2)c(-c2ccccc2Cl)c1 [Compound 111, (R,Z)-1-((2′-chloro-5-ethyl-[1,1′-biphenyl]-2-yl)sulfonyl)-4-fluoro-N-(4-(methylsulfonyl)but-3-en-2-yl)piperidine-4-carboxamide]",320,210
"CCc1ccc(S(=O)(=O)N2CCC(F)(C(=O)N[C@H](C)/C=C\S(C)(=O)=O)CC2)c(-c2ccccc2)c1 [Compound 112, (R,Z)-1-((5-ethyl-[1,1′-biphenyl]-2-yl)sulfonyl)-4-fluoro-N-(4-(methylsulfonyl)but-3-en-2-yl)piperidine-4-carboxamide]",780,660
"Cc1ccccc1-c1cc(C(C)C)ccc1S(=O)(=O)N1CCC(F)(C(=O)N[C@H](C)/C=C\S(C)(=O)=O)CC1 [Compound 115, (R,Z)-4-fluoro-1-((5-isopropyl-2′-methyl-[1,1′-biphenyl]-2-yl)sulfonyl)-N-(4-(methylsulfonyl)but-3-en-2-yl)piperidine-4-carboxamide]",520,410

# Further compounds by falling IC50 (PIK3CA), results first:
IC50 (PIK3CA) [nM],IC50 (PIK3CA_C242) [nM],Compound
760,620,"C[C@H](/C=C\S(C)(=O)=O)NC(=O)C1(F)CCN(S(=O)(=O)c2ccc(F)cc2-c2ccccc2Cl)CC1 [Compound 31, (R,Z)-1-((2′-chloro-5-fluoro-[1,1′-biphenyl]-2-yl)sulfonyl)-4-fluoro-N-(4-(methylsulfonyl)but-3-en-2-yl)piperidine-4-carboxamide]"
610,680,"CC(C)c1ccc(S(=O)(=O)N2CCC(F)(C(=O)N[C@H](C)/C=C\S(C)(=O)=O)CC2)c(-c2ccccc2Cl)c1 [Compound 114, (R,Z)-1-((2′-chloro-5-isopropyl-[1,1′-biphenyl]-2-yl)sulfonyl)-4-fluoro-N-(4-(methylsulfonyl)but-3-en-2-yl)piperidine-4-carboxamide]"
560,340,"COc1ccc(S(=O)(=O)N2CCC(F)(C(=O)N[C@H](C)/C=C\S(C)(=O)=O)CC2)c(-c2c(F)cccc2Cl)c1 [Compound 30, 1-((2′-chloro-6′-fluoro-5-methoxy-[1,1′-biphenyl]-2-yl)sulfonyl)-4-fluoro-N-((R,Z)-4-(methylsulfonyl)but-3-en-2-yl)piperidine-4-carboxamide]"
390,400,"COc1ccc(Cl)c(-c2cc(N(C)C)ccc2S(=O)(=O)N2CCC(F)(C(=O)N[C@@H](C)/C=C\S(C)(=O)=O)CC2)c1 [Compound 87, (S,Z)-1-((2′-chloro-5-(dimethylamino)-5′-methoxy-[1,1′-biphenyl]-2-yl)sulfonyl)-4-fluoro-N-(4-(methylsulfonyl)but-3-en-2-yl)piperidine-4-carboxamide]"
200,320,"C=Cc1ccc(S(=O)(=O)N2CCC(F)(C(=O)N[C@H](C)/C=C\S(C)(=O)=O)CC2)c(-c2ccccc2Cl)c1 [Compound 107, (R,Z)-1-((2′-chloro-5-vinyl-[1,1′-biphenyl]-2-yl)sulfonyl)-4-fluoro-N-(4-(methylsulfonyl)but-3-en-2-yl)piperidine-4-carboxamide]"
150,75.5,"Cc1ccccc1-c1cc(N(C)C)ccc1S(=O)(=O)N1CCC(F)(C(=O)N[C@H](C)/C=C\S(C)(=O)=O)CC1 [Compound 93, (R,Z)-1-((5-(dimethylamino)-2′-methyl-[1,1′-biphenyl]-2-yl)sulfonyl)-4-fluoro-N-(4-(methylsulfonyl)but-3-en-2-yl)piperidine-4-carboxamide]"
99,96,"CC#Cc1cccc(-c2cc(Cl)ccc2S(=O)(=O)N2CCC(F)(C(=O)N[C@@H](C)/C=C\S(C)(=O)=O)CC2)c1 [Compound 100, (S,Z)-1-((5-chloro-3′-(prop-1-yn-1-yl)-[1,1′-biphenyl]-2-yl)sulfonyl)-4-fluoro-N-(4-(methylsulfonyl)but-3-en-2-yl)piperidine-4-carboxamide]"
95,70,"N#C/C=C\CNC(=O)C1(F)CCN(S(=O)(=O)c2ccc(Br)cc2-c2ccccc2Cl)CC1 [Compound 70, (Z)-1-((5-bromo-2′-chloro-[1,1′-biphenyl]-2-yl)sulfonyl)-N-(3-cyanoallyl)-4-fluoropiperidine-4-carboxamide]"
